# Entries after “also recorded” stand apart in the source; their conditions may differ. Read-outs that look alike come from different tables or passages of the source.
# Tests used:
# [1] = cited from earlier work
# [2] = system: rats with cortical contusion injury (TBI); test: Spontaneous alternating T-maze after TBI; type: in vivo, rat
# Protocol: (§1) Cortical Contusion Injury. Adult male and female Sprague-Dawley and Wistar rats (225-350 gm) received a moderately severe cortical impact injury under anesthesia with a controlled weight drop apparatus mounted on a stereotactic apparatus. Anesthesia was induced with ketamine/xylazine (60/6 mg/kg i.p.). A midline incision was performed to expose the skull. The dura was exposed with a 4.4-mm craniotomy centered at 1.4-mm posterior and 2.4-mm lateral to the bregma for placement of the 4-mm diameter foot-plate of the contusion apparatus. Contusion injury force of 600 g/cm was produced with a 20-g weight and dropping distance of 30-cm. The 20-g weight was released into a vertical guided tube that strikes the foot plate positioned at the end of the tube which is in contact with the dura. To avoid brain penetration, the foot-plate was prevented by a guide from moving greater than 2.5-mm into the dura.
# (§2) Drug Administration. Rats in the TBI+CBD group received the gelfoam sponge infused with CBD (20.0 mg/ml) directly to the open contusion site overlying the dura within 2 min after the weight was removed from the apparatus. CBD was also administered systemically 10 min following surgery at 40 mg/kg followed by 20 mg/kg for all other injection days. TBI rats received gelfoam with coconut or olive oil directly onto the open contusion site overlying the dura following their respective surgical contusions. TBI rats also received vehicle, either coconut oil, olive oil, or PBS systemically at equal volumes that were administered to CBD treated animals according to weight (0.1-0.4 cc).
# The spontaneous alternating T-maze was utilized at 3 and 28 days following TBI or TBI+CBD in order to assess spatial sense, memory and cognitive ability. Naïve untreated rats spontaneously alternated between left and right arms. There was a tendency of asymmetry to the left arm, but the number of entries was not great enough to exclude the possibility that the difference was due to random sampling variability (L: 6.3±1.7 vs. R: 4.7±0.52, N=10, two-tailed t=2.1, df=18, p=0.05). At 3 days following TBI to the left hemisphere, arm entry was impaired.
# [3] = system: rats with cortical contusion injury (TBI); test: Cortical contusion injury, hippocampal cell counts after H&E staining; type: in vivo, rat
# Protocol: as §1, §2
# In the contralateral CAL injured cells were intermingled among healthy appearing round cell bodies. […] In contrast to the TBI+vehicle group, the ipsilateral hippocampus was predominantly intact in all CBD treated animals but with disproportional levels of injured cells throughout the subfields. There were varied numbers of pyknotic, acidophilic, irregular shaped CA1 and CA3a (not illustrated) neurons.
# Since 9 of 13 animals from the TBI+vehicle group had spared ipsilateral hippocampal tissue, counting of injured vs. healthy appearing cells of the CA1 subregion was carried out in a subset of animals from the TBI+vehicle group and compared with the CBD treated group to estimate whether injury on one side is related to the amount of injury on the other side. Measurements of the CA1 area and total volumetric measurements of the ipsilateral hemisphere were used for correlating ipsilateral injury with ipsilateral and contralateral hippocampal cellular injury.
# [4] = system: rats with cortical contusion injury (TBI); test: Novel Object Recognition test after TBI; type: in vivo, rat
# Protocol: as §1, §2
# The Novel Object Recognition test was utilized to evaluate the short-term and working memory of the TBI+CBD group compared to control TBI levels at 27-29 days and naive untreated young rats. Following habituation, animals could explore an open field with two objects for 3 consecutive days by introducing two same objects on day 1 and adding a novel object on days 2 and 3 without visual cues.
# [5] = system: rats with cortical contusion injury (TBI); test: Cortical contusion injury (weight drop TBI), lesion histology; type: in vivo, rat
# Protocol: as §1, §2
# After direct delivery of the CBD internal gelatinized matrix, dental acrylic was used to close the wound. Animals became active 30-40 min following surgery.
# FIG. 5 depicts schematic overview perspectives of an internal CBD absorbable medical carrier applied to the internal brain wound in the rat with systemic supplementation.
# [6] = system: rats with spinal cord contusion (SCI); test: Spinal cord contusion (SCI), lesion and locomotor recovery; type: in vivo, rat
# From the text: FIG. 6 depicts schematic overview perspectives of an internal CBD absorbable medical carrier applied to the internal wound in the rat with systemic supplementation with a spinal cord contusion (SCI).
# [7] = system: rats with cortical contusion injury (TBI); test: Beam balance test (vestibulomotor function) after TBI; type: in vivo, rat; conditions: compared to TBI untreated rats; day 14 through day 28
# Protocol: as §1
# Drug Administration. Rats in the TBI+CBD group received the gelfoam sponge infused with CBD (20.0 mg/ml) directly to the open contusion site overlying the dura within 2 min after the weight was removed from the apparatus. CBD was also administered systemically 10 min following surgery at 40 mg/kg followed by 20 mg/kg for all other injection days. […]
# Vestibulomotor function was determined with the beam balance test in the TBI untreated and TBI+CBD treated rats. […]
# [8] = comparison of both hemispheres, p=0.037
smiles,measurement,setting,value
"C=C(C)[C@@H]1CCC(C)=C[C@H]1c1c(O)cc(CCCCC)cc1O [CBD, cannabidiol]",absorbed in the body,[1]; ingestion,5-20%
same,absorbed in the body,[1]; vaping or smoking,30-60%
same,time to choose right or left,"[2]; 3 or 28 days post-injury, not significantly different from TBI+vehicle",13 to 33 s
same,asymmetry of arm entry to the left,[2]; 3 days following TBI to the left hemisphere,highly significant
same,percent alternating in T-maze,"[2]; 28 days after TBI, TBI 17.5±11.8%",52.5±8.53%
same,spontaneous alternation (in words),[2]; after 28 days,significant increase in percent alternating
same,"hippocampal injury at the cellular level (H&E, in words)",[3]; CBD local and peripheral delivery system,partially attenuated
same,contralateral hippocampus hilus irregular stained/injured cells,"[3]; TBI+vehicle 30.4 4.17, p=0.002",7.63±1.86
same,contralateral hippocampus CA1 irregular stained/injured cells,"[3]; TBI+vehicle 53.3±10.9, p=0.045",14.22±2.2
same,"number of injured CA1 neurons, contralateral side (comparison of both hemispheres)",[3]; [8],14.21±2.29
same,"number of injured CA1 neurons, ipsilateral side",[3]; [8],172.75±70
same,percent of CA1 contralateral injured cell counts relative to TBI+vehicle,[3]; relative to TBI+vehicle,26.7±4.37%
same,ratio of ipsilateral injured CA1 neurons to healthy appearing CA1 pyramidal neurons,[3]; versus TBI+vehicle,unchanged
same,overall mobility,[4]; 27-29 days post-TBI,greater than TBI rats and similar to naïve untreated controls
same,speed of travel,"[4]; 27-29 days post-TBI, p=0.032",greater speed than TBI rats
same,distance travelled,"[4]; averaged from days 2+3 of testing, 27-29 days post-TBI, p=0.03",greater distance than TBI+vehicle treated rats
same,number of episodes of interacting with old and novel objects,"[4]; compared to TBI rats, not significantly different from naïve rats",much greater
same,time spent with the novel object,"[4]; compared to TBI, not significantly different from naïve rats",much greater
same,"area affected, normalized to TBI+vehicle treated group","[5]; Bregma AP 1.2 to −6.8, local sponge plus systemic CBD, p=0.0008",34.04±6.38%
same,ipsilateral cortical/hippocampal lesion volume,"[5]; approximated from 12 levels, 4 weeks after TBI, gelfoam sponge with CBD 20.0 mg/ml at contusion site plus systemic CBD 40 then 20 mg/kg, TBI+vehicle 69.85±7.2",21.4±3.5 mm^3
same,lesion size after brain contusion (in words),[5]; compared to contusion alone / TBI+vehicle,reduced ipsilateral lesion size; also recorded: decreased the size of the ipsilateral lesion
same,total anterior to posterior lesion measurement,"[5]; local sponge plus systemic CBD, TBI control 6.586±0.2, p=0.008",5.867±0.17 mm
same,lesion area at posterior levels (Bregma AP: −6.8 or further),"[5]; local sponge plus systemic CBD, comparison value 1.22±0.35, p=0.347",0.92±0.17 mm^2
same,locomotor recovery after spinal cord contusion (in words),"[6]; aged female rats, weeks 5 and 6 with continued CBD treatment",significant locomotor improvement
same,"spinal cord lesion area / tissue preservation (Luxol Fast Blue, in words)",[6]; internal CBD carrier plus 1 week of daily CBD injections and 3 weeks of intermittent CBD treatment,reduced volumetric lesion area
same,beam balance performance / vestibulomotor function (in words),[7],improved balance and locomotor function within a few days; also recorded: significant improvement

# From patent publication US20230158091A1, “C[…] CARRIER” (New York Medical College, priority 2020, published 2023)
